Test results as given in ChEMBL document CHEMBL5608170, “An insight into sustainable and green chemistry approaches for the synthesis of quinoline derivatives as anticancer agents” (Eur J Med Chem, 2024).
Converted amounts (≈) assume the structure as drawn. Blank lines part the entries; values can stand above or below the compound they belong to.

Tests used:
[1] = test system: B16-F10; assay: Cytotoxicity against mouse B16-F10 cells assessed as reduction in cell viability incubated for 48 hrs by MTT assay; assay type: functional, cell-based; details: B16-F10, 48 h
[2] = test system: MCF7; assay: Cytotoxicity against human MCF7 cells assessed as reduction in cell viability by MTT assay; assay type: functional, cell-based
[3] = test system: MCF7; assay: Anticancer activity against human MCF7 cells assessed as reduction in cell growth incubated for 48 hrs by MTT assay; assay type: functional, cell-based; details: MCF7, 48 h
[4] = test system: HeLa; assay: Anticancer activity against human HeLa cells assessed as reduction in cell growth incubated for 48 hrs by MTT assay; assay type: functional, cell-based
[5] = test system: MDA-MB-231; assay: Cytotoxicity against human MDA-MB-231 cells assessed as reduction in cell viability incubated for 48 hrs by MTT assay; assay type: functional, cell-based; details: MDA-MB-231, 48 h
[6] = test system: A549; assay: Cytotoxicity against human A549 cells assessed as reduction in cell viability incubated for 72 hrs by MTT assay; assay type: functional, cell-based; details: A549, 72 h
[7] = test system: HT-29; assay: Cytotoxicity against human HT-29 cells assessed as reduction in cell viability incubated for 72 hrs by MTT assay; assay type: functional, cell-based; details: HT-29, 72 h
[8] = test system: NCI-H460; assay: Antiproliferative activity against human NCI-H460 cells assessed as reduction in cell viability by MTT assay; assay type: functional, cell-based
[9] = test system: A549; assay: Antiproliferative activity against human A549 cells assessed as reduction in cell viability by MTT assay; assay type: functional, cell-based
[10] = test system: A549; assay: Cytotoxicity against human A549 cells assessed as reduction in cell viability incubated for 24 hrs by MTT assay; assay type: functional, cell-based; details: A549, 24 h
[11] = test system: HepG2; assay: Cytotoxicity against human HepG2 cells assessed as reduction in cell viability incubated for 24 hrs by MTT assay; assay type: functional, cell-based; details: HepG2, 24 h
[12] = test system: HCT-116; assay: Cytotoxicity against human HCT-116 cells assessed as reduction in cell viability incubated for 24 hrs by MTT assay; assay type: functional, cell-based; details: HCT-116, 24 h
[13] = test system: MCF7; assay: Cytotoxicity against human MCF7 cells assessed as reduction in cell viability incubated for 24 hrs by MTT assay; assay type: functional, cell-based; details: MCF7, 24 h
[14] = Cytotoxicity against human HEp-2C cells assessed as reduction in cell viability incubated for 72 hrs by MTT assay; assay type: functional, cell-based; details: Hep2C
[15] = test system: MCF7; assay: Cytotoxicity against human MCF7 cells assessed as reduction in cell growth by MTT assay; assay type: functional, cell-based
[16] = test system: A549; assay: Cytotoxicity against human A549 cells assessed as reduction in cell growth by MTT assay; assay type: functional, cell-based
[17] = test system: HepG2; assay: Cytotoxicity against human HepG2 cells assessed as reduction in cell growth by MTT assay; assay type: functional, cell-based
[18] = test system: HCT 116 TP53(-/-); assay: Antiproliferative activity against human HCT116-p53-null cells assessed as reduction in cell viability by MTT assay; assay type: functional, cell-based
[19] = test system: PC-3; assay: Cytotoxicity against human PC-3 cells assessed as reduction in cell growth measured for 48 hrs by MTT assay; assay type: functional, cell-based; details: PC-3, 48 h
[20] = test system: MDA-MB-231; assay: Cytotoxicity against human MDA-MB-231 cells assessed as reduction in cell growth measured for 48 hrs by MTT assay; assay type: functional, cell-based; details: MDA-MB-231, 48 h
[21] = test system: DU-145; assay: Cytotoxicity against human DU-145 cells assessed as reduction in cell growth measured for 48 hrs by MTT assay; assay type: functional, cell-based; details: DU-145, 48 h
[22] = test system: K562; assay: Growth inhibition of human K562 cells at 10 uM incubated for 24 hrs by MTT assay; assay type: functional; details: read-out: GI
[23] = test system: HeLa; assay: Growth inhibition of human HeLa cells; assay type: functional
[24] = test system: WiDr; assay: Growth inhibition of human WiDr cells; assay type: functional
[25] = test system: A549; assay: Growth inhibition of human A549 cells; assay type: functional
[26] = test system: HBL-100; assay: Growth inhibition of human HBL-100 cells; assay type: functional
[27] = test system: T47D; assay: Growth inhibition of human T47D cells; assay type: functional
[28] = test system: SW1573; assay: Growth inhibition of human SW1573 cells; assay type: functional
[29] = test system: A549; assay: Anticancer activity against human A549 cells assessed as reduction in cell growth incubated for 48 hrs by MTT assay; assay type: functional, cell-based; details: A549, 48 h
[30] = test system: HeLa; assay: Growth inhibition of human HeLa cells by SRB assay; assay type: functional

Compound: CNC(=O)c1cccc2cc(Oc3ccnc4cc(OCC5(N)CC5)c(OC)cc34)ccc12 [LUCITANIB]
- IC50 [1]: 16.3 µM

Compound: COC(=O)c1c(C(F)(F)F)nc2c(c1-c1ccc(S(=O)(=O)c3ccccc3)cc1)C(=O)CC(C)(C)C2
- IC50 [2]: 0.002 µM

- IC50 [3]: 31.4 µM
- IC50 [4]: 15.7 µM
Compound: COc1cccc(-n2nnc3c2-c2ccc4cccnc4c2OC3)c1

Compound: COc1cc2c(Oc3ccc4[nH]c(C)cc4c3F)ccnc2cc1OCC1(N)CC1 [CATEQUENTINIB]
- IC50 [5]: 17 µM

Compound: COc1cc(/C=C2\OCc3nc4ccccc4c(-c4ccccc4)c3C2=O)cc(OC)c1OC
- IC50 [6]: 4.82 µg/mL (≈ 10.6 µM)
- IC50 [7]: 7.69 µg/mL (≈ 17 µM)

Compound: COc1ncc(-c2cc(-c3cn(Cc4ccccc4F)nn3)cc3ccc(C)nc23)cc1F
- IC50 [5]: 20.6 µM

- IC50 [8]: 5.4 µM
- IC50 [9]: 6.5 µM
Compound: COc1ccccc1Nc1nc2ccccc2c(Nc2ccccc2OC)c1[N+](=O)[O-]

Compound: COc1cc(/C=C2\OCc3nc4ccccc4c(C)c3C2=O)cc(OC)c1OC
- IC50 [6]: 3.68 µg/mL (≈ 9.4 µM)
- IC50 [7]: 6.69 µg/mL (≈ 17.1 µM)

Compound: N#CC1=C(N)Oc2c(ccc3cccnc23)C1c1cccc(Cl)c1 (configuration not stated)
- IC50 [10]: 1.23 µg/mL (≈ 3.69 µM)
- IC50 [11]: 1.87 µg/mL (≈ 5.6 µM)
- IC50 [12]: 1.35 µg/mL (≈ 4.04 µM)
- IC50 [13]: 1.42 µg/mL (≈ 4.25 µM)

Compound: Clc1cccc(NCN2CCCc3ccccc32)c1
- IC50 [14]: 11.9 µM

Compound: N#CC1C(=S)N=C2C(=C1c1ccc(Cl)cc1)CCC/C2=C\c1ccc(Cl)cc1 (configuration not stated)
- IC50 [15]: 3.17 µg/mL (≈ 7.49 µM)
- IC50 [16]: 25.5 µg/mL (≈ 60.3 µM)
- IC50 [17]: 2.86 µg/mL (≈ 6.76 µM)

- IC50 [18]: 4.8 µM
Compound: COc1ccc(Nc2nc3ccccc3c(NCc3ccccc3Cl)c2[N+](=O)[O-])cc1

Compound: O=C1N(c2cccnc2)c2[nH]c(=O)[nH]c(=O)c2C12c1ccccc1Nc1c2[nH]c(=O)[nH]c1=O (configuration not stated)
- IC50 [19]: 15.4 µM
- IC50 [20]: 7.97 µM
- IC50 [21]: 15 µM

- IC50 [8]: 7.1 µM
- IC50 [9]: 11.2 µM
Compound: COc1ccc(Nc2nc3ccccc3c(Nc3ccc(OC)cc3)c2[N+](=O)[O-])cc1

Compound: COc1ccc(-c2cn3c4c(cccc24)CCC3)cc1
- inhibition of growth at 10 µM [22]: 66%

- GI50 [23]: 4 µM
- GI50 [25]: 12 µM
- GI50 [27]: 10 µM
- GI50 [28]: 8 µM
Compound: COc1cc2nccc(Oc3ccc(NC(=O)NC4CC4)c(Cl)c3)c2cc1C(N)=O [LENVATINIB]
- GI50 [24]: 19 µM
- GI50 [26]: 10 µM

- IC50 [29]: 32.5 µM
- IC50 [3]: 16.9 µM
- IC50 [4]: 11.4 µM
Compound: Cc1cc(C)cc(-n2nnc3c2-c2ccc4cccnc4c2OC3)c1

- GI50 [30]: < 0.1 µM
Compound: CC(=O)NC1=NN(C(C)=O)C(c2cc3cc(Br)ccc3n3nnnc23)S1 (configuration not stated)

Compound: N#CC1=C(N)Oc2c(cc(Cl)c3cccnc23)C1c1cccc(Cl)c1 (configuration not stated)
- IC50 [10]: 2.67 µg/mL (≈ 7.25 µM)
- IC50 [11]: 0.7 µg/mL (≈ 1.9 µM)
- IC50 [12]: 3.04 µg/mL (≈ 8.26 µM)
- IC50 [13]: 0.9 µg/mL (≈ 2.44 µM)

- GI50 [23]: 8.3 µM
- GI50 [25]: 7.7 µM
- GI50 [27]: 16 µM
- GI50 [28]: 20 µM
Compound: CCOc1cc2ncc(C#N)c(Nc3ccc(F)c(Cl)c3)c2cc1NC(=O)/C=C/CN(C)C [PELITINIB]
- GI50 [24]: 12 µM
- GI50 [26]: 19 µM
